PubChem BioAssay (NCI)
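Protocol summary: plate cells (96-well), add compound at 5 concentrations, incubate 48 h, interpolate endpoints linearly. Here, GI50 denotes the concentration required for 50% inhibition of growth. TGI: total growth inhibition.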

What was measured:
Test in all cases: growth of human tumour cells (NCI), 48 h
[1] = tested on: OVCAR-3 ovarian
[2] = tested on: HCC-2998 colon
[3] = tested on: UO-31 renal
[4] = tested on: SN12C renal
[5] = tested on: DU-145 prostate
[6] = tested on: K-562 leukemia
[7] = tested on: IGROV1 ovarian
[8] = tested on: MCF7 breast
[9] = tested on: RXF 393 renal
[10] = tested on: HOP-92 NSCLC
[11] = tested on: T-47D breast
[12] = tested on: SR leukemia
[13] = tested on: SK-MEL-5 melanoma
[14] = tested on: SNB-19 CNS
[15] = tested on: NCI-H522 lung
[16] = tested on: MALME-3M melanoma
[17] = tested on: TK-10 renal
[18] = tested on: RPMI-8226 leukemia
[19] = tested on: HCT-15 colon
[20] = tested on: SK-OV-3 ovarian
[21] = tested on: SK-MEL-2 melanoma
[22] = tested on: ACHN renal
[23] = tested on: NCI-H23 lung
[24] = tested on: CCRF-CEM leukemia
[25] = tested on: HL-60(TB) leukemia
[26] = tested on: NCI/ADR-RES ovarian
[27] = tested on: COLO 205 colon
[28] = tested on: SW-620 colon
[29] = tested on: MOLT-4 leukemia
[30] = tested on: OVCAR-8 ovarian
[31] = tested on: UACC-257 melanoma
[32] = tested on: SF-295 CNS
[33] = tested on: 786-0 renal
[34] = tested on: M14 melanoma
[35] = tested on: U251 CNS
[36] = tested on: PC-3 prostate
[37] = tested on: SF-268 CNS
[38] = tested on: MDA-N
[39] = tested on: HT29 colon
[40] = tested on: OVCAR-5 ovarian
[41] = tested on: SK-MEL-28 melanoma
[42] = tested on: EKVX NSCLC
[43] = tested on: A498 renal
[44] = tested on: HCT-116 colon
[45] = tested on: KM12 colon
[46] = tested on: LOX IMVI melanoma
[47] = tested on: NCI-H226 lung
[48] = tested on: OVCAR-4 ovarian
[49] = tested on: NCI-H460 lung
[50] = tested on: MDA-MB-231 breast
[51] = tested on: HS 578T breast
[52] = tested on: SNB-75 CNS
[53] = tested on: CAKI-1 renal
[54] = tested on: A549 NSCLC
[55] = tested on: SF-539 CNS
[56] = tested on: MDA-MB-435
[57] = tested on: HOP-62 NSCLC
[58] = tested on: BT-549 breast
[59] = tested on: UACC-62 melanoma

`Cc1ccc2c(c1)CC1(C2)Cc2ccc(C)cc2C1=O` (stereo unspecified) gave a TGI [1] of over 100 µM, a TGI [2] of 85 µM and a TGI [3] of over 100 µM. For the same compound, the TGI [4] was over 100 µM, the TGI [5] was over 100 µM and the TGI [6] was over 100 µM. It also gave a TGI [7] of over 100 µM, a TGI [8] of 89 µM and a TGI [9] of 54.4 µM. It also gave a TGI [10] of 66.3 µM, a TGI [11] of over 100 µM and a TGI [12] of 57 µM. It also gave a TGI [13] of 26 µM, a TGI [14] of over 100 µM and a TGI [15] of 61.3 µM. It also gave a TGI [16] of 43.8 µM, a TGI [17] of over 100 µM and a TGI [18] of 95.3 µM. The TGI [19] was 79.5 µM, the TGI [20] was over 100 µM and the TGI [21] was 47.1 µM. The TGI [22] was over 100 µM, the TGI [23] was over 100 µM and the TGI [24] was 62.3 µM. It also gave a TGI [25] of 63.4 µM, a TGI [26] of 62.6 µM and a TGI [27] of 44.3 µM. It also gave a TGI [28] of over 100 µM, a TGI [29] of 45.7 µM and a TGI [30] of over 100 µM. The TGI [31] was 48.1 µM, the TGI [32] was over 100 µM and the TGI [33] was 63 µM. It also gave a TGI [34] of 71.6 µM, a TGI [35] of over 100 µM and a TGI [36] of over 100 µM. It also gave a TGI [37] of over 100 µM, a TGI [38] of 73.1 µM and a TGI [39] of 56.2 µM. For the same compound, the TGI [40] was over 100 µM, the TGI [41] was over 100 µM and the TGI [42] was 88.7 µM. For the same compound, the TGI [43] was over 100 µM, the TGI [44] was 71.9 µM and the TGI [45] was 53.6 µM. The TGI [46] was 36.4 µM, the TGI [47] was 61.6 µM and the TGI [48] was over 100 µM. For the same compound, the TGI [49] was 55.5 µM, the TGI [50] was 62.5 µM and the TGI [51] was over 100 µM. The TGI [52] was 84.3 µM, the TGI [53] was 87.2 µM and the TGI [54] was over 100 µM. The TGI [55] was 87.3 µM, the TGI [56] was over 100 µM and the TGI [57] was 97.8 µM.
With `COc1ccc(-c2nnc(Nc3nc(O)c(C4=c5cc(Br)ccc5=NC4=O)s3)o2)cc1` the GI50 [1] was 15.5 µM, the TGI [1] was 40.3 µM and the GI50 [2] was 1340 nM. For the same compound, the TGI [2] was 33.8 µM, the GI50 [3] was 19.4 µM and the TGI [3] was 63.1 µM. The GI50 [4] was 15.5 µM, the TGI [4] was 52.8 µM and the GI50 [5] was 16.9 µM. For the same compound, the TGI [5] was over 56.3 µM, the GI50 [6] was 20.6 µM and the TGI [6] was 75.2 µM. The GI50 [7] was 2680 nM, the TGI [7] was 23.8 µM and the GI50 [8] was over 43.9 µM. For the same compound, the TGI [8] was over 100 µM, the GI50 [9] was 5.48 µM and the TGI [9] was over 55.6 µM. For the same compound, the GI50 [10] was 21.2 µM, the TGI [10] was 65.6 µM and the GI50 [11] was 41.9 µM. For the same compound, the TGI [11] was over 100 µM, the GI50 [12] was 1600 nM and the TGI [12] was 35.9 µM. The GI50 [13] was 18.3 µM, the TGI [13] was over 59.5 µM and the GI50 [14] was 28.1 µM. It also gave a TGI [14] of over 83.4 µM, a GI50 [58] of 6.49 µM and a TGI [58] of 27.9 µM. For the same compound, the GI50 [15] was 19.8 µM, the TGI [15] was over 74.2 µM and the TGI [16] was 3.53 µM. It also gave a GI50 [17] of 18.9 µM, a TGI [17] of 51 µM and a GI50 [18] of 17.3 µM. The TGI [18] was over 66.5 µM, the GI50 [19] was 18.4 µM and the TGI [19] was over 63 µM. For the same compound, the GI50 [20] was 52 µM, the TGI [20] was over 100 µM and the GI50 [21] was 17.3 µM. For the same compound, the TGI [21] was 48.8 µM, the TGI [22] was 38.8 µM and the GI50 [23] was 23.6 µM. For the same compound, the TGI [23] was over 69.3 µM, the GI50 [24] was 6.79 µM and the TGI [24] was 32.7 µM. For the same compound, the GI50 [25] was 633 nM, the TGI [25] was 9.89 µM and the GI50 [26] was 22.5 µM. For the same compound, the TGI [26] was over 71.8 µM, the GI50 [27] was 32 µM and the TGI [27] was over 100 µM. The GI50 [28] was 14.2 µM, the TGI [28] was over 100 µM and the GI50 [29] was 3.51 µM. It also gave a TGI [29] of 27.6 µM, a GI50 [30] of 19.3 µM and a TGI [30] of over 76.4 µM. It also gave a GI50 [31] of 7.79 µM, a TGI [31] of 56.9 µM and a GI50 [32] of 20.6 µM. The TGI [32] was 60.4 µM, the GI50 [33] was 25.1 µM and the TGI [33] was over 77.8 µM. For the same compound, the GI50 [34] was 20.1 µM, the TGI [34] was 63.7 µM and the GI50 [35] was 15.4 µM. The TGI [35] was 30.7 µM, the GI50 [36] was 18.1 µM and the TGI [36] was over 76.7 µM. For the same compound, the GI50 [37] was 47.5 µM, the TGI [37] was over 100 µM and the GI50 [39] was 35.4 µM. For the same compound, the TGI [39] was over 100 µM, the GI50 [40] was 26.7 µM and the TGI [40] was 80.3 µM. The GI50 [41] was 29 µM, the TGI [41] was over 100 µM and the GI50 [42] was 9.89 µM. It also gave a TGI [42] of over 55.8 µM, a GI50 [43] of 12.4 µM and a TGI [43] of 46.4 µM. It also gave a GI50 [44] of 25.5 µM, a TGI [44] of 97.7 µM and a GI50 [45] of 3.54 µM. For the same compound, the TGI [45] was 23.5 µM, the GI50 [46] was 19.8 µM and the TGI [46] was 62 µM. The GI50 [47] was 1020 nM, the TGI [47] was 8.35 µM and the GI50 [48] was 27.5 µM. For the same compound, the TGI [48] was over 100 µM, the GI50 [49] was 22.6 µM and the TGI [49] was over 100 µM. For the same compound, the GI50 [50] was 421 nM, the TGI [50] was 10 µM and the GI50 [51] was 6.92 µM. For the same compound, the TGI [51] was 22.5 µM, the GI50 [52] was 21.6 µM and the TGI [52] was 75.2 µM. It also gave a GI50 [53] of 17.2 µM, a TGI [53] of 50.1 µM and a GI50 [59] of 1080 nM. The TGI [59] was 26.7 µM, the GI50 [54] was 26.8 µM and the TGI [54] was over 100 µM. The GI50 [55] was 17.9 µM, the TGI [55] was 41.3 µM and the GI50 [56] was 23.8 µM. For the same compound, the TGI [56] was 57.7 µM, the GI50 [57] was 24 µM and the TGI [57] was over 71.1 µM.
